ChEMBL document CHEMBL1201862, “PubChem BioAssay data set” (2004)
Calls of active or inactive are those of the source.

What was measured:
[1] = molecular target: 5-hydroxytryptamine receptor 2A (Mus musculus, UniProt P35363); format: functional, cell-based;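 also: CHO-K1 cells with tagged receptor and beta-arrestin; agonist potency measured as compound-induced activation of the receptor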
Mu-type opioid receptor = Mu-type opioid receptor (Homo sapiens, UniProt P35372); format: functional, cell-based;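 also: U2OS cells with beta-arrestin recruitment to OPRM1 by beta-gal complementation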
[2] = activation of miR-122 Renilla sensor silencing – cell-based, Huh7 psiCHECK-miR122, Renilla luciferase, cherry-picked, dose response (AID 651956); format: functional;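 also: huh7 hepatoma cells stably carrying a psiCHECK-2 miR-122 sensor plasmid; renilla luciferase signal reporting endogenous miR-122 activity after 48 h compound exposure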
[3] = fluconazole-exposed Candida albicans growth modulators – fluorescence, retest, confirmation (AID 2467); format: functional, cell-based
Albumin = Albumin (Bos taurus, UniProt P02769); test: Counterscreen for inhibitors of T-cell receptor (TCR)-CD3 interaction: Fluorescence-based biochemical high throughput dose response assay to identify inhibitors of T-cell receptor (TCR)-CD3 interaction using a TAMRA-labeled BSA probe.; format: functional
[4] = NIH-3T3 fibroblast cytotoxicity, dose response, cytotoxicity control, cell-based, fluorescence, Alamar Blue, secondary assay (AID 2327); format: functional;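 also: NIH-3T3 mouse fibroblasts cultured with fluconazole at 8 µg/mL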
[5] = molecular target: Luciferin 4-monooxygenase (Photinus pyralis, UniProt P08659); test: inhibition of purified Photinus pyralis luciferase – biochemical, luminescence, dose response (AID 1891)
[6] = molecular target: T1, Rac GTPase-activating protein 1 (Homo sapiens, UniProt Q9H0H5); test: blockers of MgcRacGAP-driven Rac1 GTP hydrolysis – biochemical, ADP Hunter fluorescence, primary and confirmatory, confirmation (AID 624330); format: functional
T1 sequence (Q9H0H5 whole entry): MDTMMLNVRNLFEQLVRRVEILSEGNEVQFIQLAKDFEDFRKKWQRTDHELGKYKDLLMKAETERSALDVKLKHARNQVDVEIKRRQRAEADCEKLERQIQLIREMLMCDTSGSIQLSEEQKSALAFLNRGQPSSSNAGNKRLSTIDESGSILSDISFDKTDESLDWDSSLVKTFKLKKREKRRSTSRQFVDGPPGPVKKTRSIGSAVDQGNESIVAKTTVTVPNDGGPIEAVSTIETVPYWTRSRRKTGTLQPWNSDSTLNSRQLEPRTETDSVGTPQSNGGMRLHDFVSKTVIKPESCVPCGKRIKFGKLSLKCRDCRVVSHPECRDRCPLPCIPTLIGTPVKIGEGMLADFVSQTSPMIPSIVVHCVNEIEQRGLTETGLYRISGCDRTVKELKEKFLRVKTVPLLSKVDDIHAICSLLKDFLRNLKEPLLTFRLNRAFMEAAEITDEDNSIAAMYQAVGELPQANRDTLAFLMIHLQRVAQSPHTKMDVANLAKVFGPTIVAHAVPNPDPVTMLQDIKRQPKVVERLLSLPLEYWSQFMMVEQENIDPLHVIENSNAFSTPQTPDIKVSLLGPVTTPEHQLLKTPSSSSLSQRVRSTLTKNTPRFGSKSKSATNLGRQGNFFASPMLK

[7] = viability loss in HeLa cells – cytotoxicity control for MgcRacGAP inhibitor project, dose response (AID 624300); format: functional
[8] = Luminescence Cell-Based Dose Confirmation HTS to Identify Inhibitors of Platelet Dense Granule Release. [Related pubchem assays: 1663 (Primary HTS), 1678 (Summary of Project)]; format: functional
Large T antigen = Large T antigen (Simian virus 40, UniProt P03070); format: functional, Betapolyomavirus macacae;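 also: Confirmatory-stage PubChem screen for compounds that inhibit SV40 T antigen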
[9] = molecular target: T2, Long-chain-fatty-acid--AMP ligase FadD28 (Mycobacterium tuberculosis, UniProt P9WQ59); test: Fluorescence polarization aasay to screen for inhibitors that compete for the binding of FadD28 to a bisubstrate Measured in Biochemical System Using Plate Reader - 2147-01_Inhibitor_Dose_CherryPick_Activity.; format: functional, Mycobacterium tuberculosis H37Rv
T2 sequence (P9WQ59 whole entry): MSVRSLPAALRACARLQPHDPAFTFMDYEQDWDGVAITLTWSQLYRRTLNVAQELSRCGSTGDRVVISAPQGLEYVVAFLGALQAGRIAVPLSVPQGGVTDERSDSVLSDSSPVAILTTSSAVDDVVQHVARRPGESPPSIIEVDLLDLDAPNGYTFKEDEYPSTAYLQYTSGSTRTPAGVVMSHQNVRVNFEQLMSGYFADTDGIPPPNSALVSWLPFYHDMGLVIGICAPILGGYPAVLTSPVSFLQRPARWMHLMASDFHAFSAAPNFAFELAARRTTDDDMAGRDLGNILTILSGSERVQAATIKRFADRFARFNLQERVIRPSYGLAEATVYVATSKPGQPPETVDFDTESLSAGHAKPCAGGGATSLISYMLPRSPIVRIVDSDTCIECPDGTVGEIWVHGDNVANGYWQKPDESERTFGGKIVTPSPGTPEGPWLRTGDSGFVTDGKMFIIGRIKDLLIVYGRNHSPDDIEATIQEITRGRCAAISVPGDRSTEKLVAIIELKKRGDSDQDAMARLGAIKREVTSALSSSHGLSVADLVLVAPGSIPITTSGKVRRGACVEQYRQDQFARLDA

[10] = molecular target: T3, Fructose-bisphosphate aldolase (Mycobacterium tuberculosis, UniProt P9WQA3); test: Fluorescence-based biochemical high throughput dose response assay for inhibitors of the fructose-bisphosphate aldolase (FBA) of M. tuberculosis.; format: functional
T3 sequence (P9WQA3 whole entry): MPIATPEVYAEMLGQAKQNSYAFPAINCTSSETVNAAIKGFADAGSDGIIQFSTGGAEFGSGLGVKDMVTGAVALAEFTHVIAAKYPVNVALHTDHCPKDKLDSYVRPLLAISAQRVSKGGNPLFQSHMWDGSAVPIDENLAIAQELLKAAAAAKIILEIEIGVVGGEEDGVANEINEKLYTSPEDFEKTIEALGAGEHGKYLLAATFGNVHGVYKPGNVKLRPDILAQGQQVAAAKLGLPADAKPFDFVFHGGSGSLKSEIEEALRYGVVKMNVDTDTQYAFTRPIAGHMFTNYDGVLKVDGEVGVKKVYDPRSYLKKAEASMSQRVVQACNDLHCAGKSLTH

[11] = molecular target: T4, DNA repair and recombination protein RAD54-like (Homo sapiens, UniProt Q92698); test: RAD54 Holliday junction migration blockers – biochemical, fluorescence, cherry-picked samples, dose series, confirmation (AID 651657); format: functional
T4 sequence (Q92698 whole entry): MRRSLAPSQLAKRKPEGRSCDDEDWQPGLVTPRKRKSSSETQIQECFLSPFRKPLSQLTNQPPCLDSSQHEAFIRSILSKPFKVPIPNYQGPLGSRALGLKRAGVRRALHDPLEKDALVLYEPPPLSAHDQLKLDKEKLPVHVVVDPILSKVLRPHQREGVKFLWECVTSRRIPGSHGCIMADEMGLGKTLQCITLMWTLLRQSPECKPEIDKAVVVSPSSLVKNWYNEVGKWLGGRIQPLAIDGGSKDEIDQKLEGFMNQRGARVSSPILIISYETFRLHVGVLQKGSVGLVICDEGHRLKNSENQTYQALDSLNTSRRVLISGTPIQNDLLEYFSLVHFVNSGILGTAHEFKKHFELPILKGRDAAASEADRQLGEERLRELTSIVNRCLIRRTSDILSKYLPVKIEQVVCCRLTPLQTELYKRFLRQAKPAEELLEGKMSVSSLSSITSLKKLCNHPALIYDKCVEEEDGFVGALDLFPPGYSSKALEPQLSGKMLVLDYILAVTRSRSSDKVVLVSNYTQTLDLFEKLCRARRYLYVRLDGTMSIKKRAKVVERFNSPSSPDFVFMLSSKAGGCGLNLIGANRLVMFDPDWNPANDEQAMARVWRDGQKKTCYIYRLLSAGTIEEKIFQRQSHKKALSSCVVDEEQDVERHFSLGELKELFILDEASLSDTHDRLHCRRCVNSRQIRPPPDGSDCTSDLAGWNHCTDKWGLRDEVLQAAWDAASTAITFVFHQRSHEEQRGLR

Chain of 5-hydroxytryptamine receptor 2A (P35363 whole entry): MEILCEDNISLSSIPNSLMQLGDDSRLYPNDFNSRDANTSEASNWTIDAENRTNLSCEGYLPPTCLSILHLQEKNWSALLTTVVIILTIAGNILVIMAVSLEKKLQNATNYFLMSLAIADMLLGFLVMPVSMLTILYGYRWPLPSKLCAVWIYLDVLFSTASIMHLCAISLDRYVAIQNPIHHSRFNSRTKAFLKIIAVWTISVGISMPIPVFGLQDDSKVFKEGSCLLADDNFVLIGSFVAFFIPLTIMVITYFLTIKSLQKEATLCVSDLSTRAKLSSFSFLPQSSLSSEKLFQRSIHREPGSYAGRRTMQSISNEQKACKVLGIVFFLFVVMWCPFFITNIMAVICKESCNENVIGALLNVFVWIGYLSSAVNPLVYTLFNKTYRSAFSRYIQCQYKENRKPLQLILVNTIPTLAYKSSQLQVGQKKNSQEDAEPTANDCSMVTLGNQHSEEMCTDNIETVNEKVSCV
Chain of Mu-type opioid receptor (P35372 whole entry): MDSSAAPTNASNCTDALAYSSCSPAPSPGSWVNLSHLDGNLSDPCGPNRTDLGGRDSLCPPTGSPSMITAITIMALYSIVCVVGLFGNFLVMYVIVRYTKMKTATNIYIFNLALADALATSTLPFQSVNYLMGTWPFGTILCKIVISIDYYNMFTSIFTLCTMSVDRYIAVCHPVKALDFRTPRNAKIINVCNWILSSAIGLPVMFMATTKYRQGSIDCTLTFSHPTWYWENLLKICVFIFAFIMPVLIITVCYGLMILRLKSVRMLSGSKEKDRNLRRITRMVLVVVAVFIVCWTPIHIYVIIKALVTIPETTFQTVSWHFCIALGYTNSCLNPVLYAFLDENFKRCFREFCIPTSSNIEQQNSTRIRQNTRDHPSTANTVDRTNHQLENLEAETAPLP
Chain of Albumin (P02769 whole entry): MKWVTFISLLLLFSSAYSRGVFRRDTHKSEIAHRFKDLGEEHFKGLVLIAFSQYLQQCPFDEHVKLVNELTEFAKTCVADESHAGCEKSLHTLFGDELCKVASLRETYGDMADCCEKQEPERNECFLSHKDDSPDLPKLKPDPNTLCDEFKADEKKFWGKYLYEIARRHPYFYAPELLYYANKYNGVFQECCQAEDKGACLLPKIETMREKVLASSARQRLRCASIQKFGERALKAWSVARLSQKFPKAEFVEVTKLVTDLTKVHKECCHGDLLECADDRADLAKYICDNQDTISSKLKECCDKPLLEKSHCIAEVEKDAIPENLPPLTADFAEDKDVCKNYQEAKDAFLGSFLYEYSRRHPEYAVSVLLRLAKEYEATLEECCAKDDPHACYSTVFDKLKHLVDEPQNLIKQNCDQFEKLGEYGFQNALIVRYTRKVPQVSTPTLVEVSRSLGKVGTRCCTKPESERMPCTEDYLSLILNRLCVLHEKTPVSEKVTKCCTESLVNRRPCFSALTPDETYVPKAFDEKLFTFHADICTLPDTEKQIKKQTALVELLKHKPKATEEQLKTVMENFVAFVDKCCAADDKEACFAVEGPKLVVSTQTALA
Chain of Luciferin 4-monooxygenase (P08659 whole entry): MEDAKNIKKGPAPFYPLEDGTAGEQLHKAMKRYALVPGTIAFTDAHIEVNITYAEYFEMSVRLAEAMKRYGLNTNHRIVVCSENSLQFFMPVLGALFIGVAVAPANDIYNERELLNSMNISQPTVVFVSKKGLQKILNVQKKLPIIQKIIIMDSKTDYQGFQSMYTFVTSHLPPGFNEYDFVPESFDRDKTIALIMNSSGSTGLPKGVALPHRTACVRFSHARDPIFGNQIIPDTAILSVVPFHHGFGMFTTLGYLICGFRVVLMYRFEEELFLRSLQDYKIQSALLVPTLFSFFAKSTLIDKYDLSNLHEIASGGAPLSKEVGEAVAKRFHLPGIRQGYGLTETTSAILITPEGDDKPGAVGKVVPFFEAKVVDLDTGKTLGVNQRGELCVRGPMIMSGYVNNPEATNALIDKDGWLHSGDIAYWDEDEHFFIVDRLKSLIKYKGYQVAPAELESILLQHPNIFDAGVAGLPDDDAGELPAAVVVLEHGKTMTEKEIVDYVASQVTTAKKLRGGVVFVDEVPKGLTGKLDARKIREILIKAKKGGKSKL
Chain of Large T antigen (P03070 whole entry): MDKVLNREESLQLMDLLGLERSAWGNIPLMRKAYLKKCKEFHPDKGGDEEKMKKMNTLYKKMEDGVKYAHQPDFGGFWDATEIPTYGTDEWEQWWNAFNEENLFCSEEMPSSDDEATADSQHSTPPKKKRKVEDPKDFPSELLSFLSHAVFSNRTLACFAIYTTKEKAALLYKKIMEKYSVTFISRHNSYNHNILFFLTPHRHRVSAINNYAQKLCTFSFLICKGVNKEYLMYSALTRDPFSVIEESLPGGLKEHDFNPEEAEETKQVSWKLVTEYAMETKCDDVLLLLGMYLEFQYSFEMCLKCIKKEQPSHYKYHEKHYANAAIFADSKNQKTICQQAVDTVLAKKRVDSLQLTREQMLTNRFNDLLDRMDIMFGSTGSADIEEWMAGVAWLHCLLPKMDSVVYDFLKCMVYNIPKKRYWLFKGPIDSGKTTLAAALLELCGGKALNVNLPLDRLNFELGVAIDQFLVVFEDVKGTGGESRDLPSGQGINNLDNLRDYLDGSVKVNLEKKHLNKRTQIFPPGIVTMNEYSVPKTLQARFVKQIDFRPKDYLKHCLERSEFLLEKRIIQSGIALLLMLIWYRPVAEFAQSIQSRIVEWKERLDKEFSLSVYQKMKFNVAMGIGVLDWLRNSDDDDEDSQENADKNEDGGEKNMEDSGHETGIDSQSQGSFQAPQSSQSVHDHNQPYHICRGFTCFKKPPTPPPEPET

COc1cccc(OC)c1OCCN1CCN(C(=O)c2ccco2)CC1
EC50 [1]: 3.12 µM (active)
EC50 (Mu-type opioid receptor): 92.4 µM (inactive)

Cc1nc(-c2nc(-c3c(C(=O)NNC(=O)Nc4cccc(Cl)c4)noc3C)cs2)cs1
EC50 [1]: 6.23 µM (active)
EC50 (Mu-type opioid receptor): 92.5 µM (inactive)

CC(C)CC#Cc1ccc2c(c1)O[C@H](CN(C)C(=O)c1cnccn1)[C@H](C)CN([C@@H](C)CO)S2(=O)=O
AC50 [2]: 10.5 µM (active)

CC(=O)NC(CC(=O)NNC(=O)c1cc2ccccc2cc1O)c1ccccc1 (stereo not drawn)
EC50 [3]: > 38 µM (not active)
IC50 (Albumin): > 94.1 µM (inactive)
EC50 [4]: > 160 µM (inactive)

COc1cc(/C=N/Nc2nncn2/N=C/c2ccc(O)c(OC)c2)ccc1O
EC50 [5]: 0.658 µM (active)
IC50 [6]: 43.6 µM (active)
CC50 [7]: 10.7 µM (active)
EC50 [8]: 2.63 µM (active)
IC50 (Large T antigen): 12.9 µM (active)

CN(C)S(=O)(=O)c1cccc(NC(=O)CCc2c[nH]c3ccccc23)c1
AC50 [9]: 97.9 µM (active)

CN(C)C(=O)c1ccc(-c2ccc([C@H]3[C@@H](CO)N4CCCCN(C(=O)C5CCCC5)C[C@@H]34)cc2)cc1
AC50 [2]: 49 µM (active)

Cc1cccc(N2CCN(CC(O)COc3ccc4ccccc4c3)CC2)c1 (stereo not drawn)
EC50 [1]: 76 µM (inactive)
EC50 (Mu-type opioid receptor): 92.4 µM (inactive)

CNC(=O)Oc1ccc(-c2cn3cc(C)ccc3n2)cc1
CC50 [7]: 100 µM (active)

CCOc1ccc(NC(=O)NNC(=O)c2ccc3ccccc3c2O)cc1
EC50 [3]: 2.58 µM (active)
IC50 (Albumin): > 94.1 µM (inactive)
EC50 [4]: > 150 µM (inactive)
IC50 [10]: 3.15 µM (active)

CN1CCN(c2ccc(CNC(=O)C3Cc4c(-c5ccc(Cl)cc5)ccnc4O3)cc2)CC1 (stereo not drawn)
AC50 [11]: 72.1 µM (active)
